Patent publication US20250034216A1, “STEREOSELECTIVE COVALENT LIGANDS FOR ONCOGENIC AND IMMUNOLOGICAL PROTEINS” (The Scripps Research Institute, priority 2021, published 2025)

Assays:
Experiment in all cases: IA-DTB cysteine engagement
Assay type in all cases: binding
PSME1_C22 = target: T1, PSME1_C22 (Homo sapiens, UniProt Q06323); settings: 22Rv1 cells, relative to DMSO; for % engagement PSME1_22: 5 μM probe, 1 h (FIG. 5B); for % engagement PSME1_C22: 20 μM probe, 1 h
T1 construct: endogenous in cells; host or cells: 22Rv1
T1 sequence (Q06323 whole entry): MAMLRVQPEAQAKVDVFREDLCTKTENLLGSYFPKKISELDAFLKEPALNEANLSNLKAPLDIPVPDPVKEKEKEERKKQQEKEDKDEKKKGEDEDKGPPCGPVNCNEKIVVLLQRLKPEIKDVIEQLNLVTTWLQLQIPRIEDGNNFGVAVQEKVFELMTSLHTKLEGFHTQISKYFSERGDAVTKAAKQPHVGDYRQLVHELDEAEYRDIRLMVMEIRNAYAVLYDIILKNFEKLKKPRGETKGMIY
Summary of the method: (§1)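 Cells were treated in situ with electrophilic probes, then lysed, and the lysates (2 mg/mL protein) were labeled with IA-DTB for 1 h at ambient temperature. After reduction, alkylation and trypsin digestion, labeled peptides were streptavidin-enriched, TMT-labeled and fractionated. Engagement ratios are probe vs DMSO reporter intensities, averaged across replicates.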

LIMK1_C349 = target: T2, LIMK1_C349 (Homo sapiens, UniProt P53667); settings: 22Rv1 cells, relative to DMSO; for % engagement LIMK1_349: 5 μM probe, 1 h (FIG. 5B); for % engagement LIMK1_C349: 20 μM probe, 1 h
T2 construct: endogenous in cells; host or cells: 22Rv1
T2 sequence (P53667 whole entry): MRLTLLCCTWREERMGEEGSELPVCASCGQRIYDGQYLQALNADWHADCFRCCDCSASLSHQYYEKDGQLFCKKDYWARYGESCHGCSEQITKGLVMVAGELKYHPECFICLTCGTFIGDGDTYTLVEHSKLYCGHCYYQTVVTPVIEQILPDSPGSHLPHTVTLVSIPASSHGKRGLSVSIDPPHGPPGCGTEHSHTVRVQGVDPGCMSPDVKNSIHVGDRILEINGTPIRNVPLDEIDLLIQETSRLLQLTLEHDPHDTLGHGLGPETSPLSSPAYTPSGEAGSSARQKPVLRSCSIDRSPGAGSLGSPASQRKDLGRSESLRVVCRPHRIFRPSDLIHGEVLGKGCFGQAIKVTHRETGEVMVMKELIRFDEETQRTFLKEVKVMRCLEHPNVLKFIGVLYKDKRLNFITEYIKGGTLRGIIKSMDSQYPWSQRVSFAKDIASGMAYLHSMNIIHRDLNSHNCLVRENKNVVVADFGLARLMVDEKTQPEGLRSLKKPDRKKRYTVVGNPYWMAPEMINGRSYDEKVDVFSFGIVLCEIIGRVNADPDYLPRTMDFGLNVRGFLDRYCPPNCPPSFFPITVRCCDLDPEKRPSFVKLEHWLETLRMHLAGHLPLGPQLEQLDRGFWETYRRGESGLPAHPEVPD
Summary of the method: as §1

STK11_C418 = target: T3, STK11_C418 (Homo sapiens, UniProt Q15831); settings: 22Rv1 cells, 20 μM probe, 1 h, relative to DMSO
T3 construct: endogenous in cells; host or cells: 22Rv1
T3 sequence (Q15831 1-433): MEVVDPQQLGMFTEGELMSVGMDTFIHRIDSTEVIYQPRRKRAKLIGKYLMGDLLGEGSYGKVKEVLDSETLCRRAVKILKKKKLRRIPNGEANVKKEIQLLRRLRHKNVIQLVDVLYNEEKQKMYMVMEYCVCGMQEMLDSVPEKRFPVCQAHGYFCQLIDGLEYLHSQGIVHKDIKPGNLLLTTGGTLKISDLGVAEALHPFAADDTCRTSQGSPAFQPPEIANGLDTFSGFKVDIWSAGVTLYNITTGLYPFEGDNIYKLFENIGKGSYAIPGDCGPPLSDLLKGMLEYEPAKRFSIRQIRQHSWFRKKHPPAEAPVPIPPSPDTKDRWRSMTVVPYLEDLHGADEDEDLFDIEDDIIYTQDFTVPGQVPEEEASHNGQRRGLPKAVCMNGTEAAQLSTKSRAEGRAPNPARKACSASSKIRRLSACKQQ
Summary of the method: as §1

GCN1_C1095 = target: T4, GCN1_C1095 (Homo sapiens, UniProt Q92616); settings: 22Rv1 cells, 20 μM probe, 1 h, relative to DMSO
T4 construct: endogenous in cells; host or cells: 22Rv1
T4 sequence (Q92616 whole entry): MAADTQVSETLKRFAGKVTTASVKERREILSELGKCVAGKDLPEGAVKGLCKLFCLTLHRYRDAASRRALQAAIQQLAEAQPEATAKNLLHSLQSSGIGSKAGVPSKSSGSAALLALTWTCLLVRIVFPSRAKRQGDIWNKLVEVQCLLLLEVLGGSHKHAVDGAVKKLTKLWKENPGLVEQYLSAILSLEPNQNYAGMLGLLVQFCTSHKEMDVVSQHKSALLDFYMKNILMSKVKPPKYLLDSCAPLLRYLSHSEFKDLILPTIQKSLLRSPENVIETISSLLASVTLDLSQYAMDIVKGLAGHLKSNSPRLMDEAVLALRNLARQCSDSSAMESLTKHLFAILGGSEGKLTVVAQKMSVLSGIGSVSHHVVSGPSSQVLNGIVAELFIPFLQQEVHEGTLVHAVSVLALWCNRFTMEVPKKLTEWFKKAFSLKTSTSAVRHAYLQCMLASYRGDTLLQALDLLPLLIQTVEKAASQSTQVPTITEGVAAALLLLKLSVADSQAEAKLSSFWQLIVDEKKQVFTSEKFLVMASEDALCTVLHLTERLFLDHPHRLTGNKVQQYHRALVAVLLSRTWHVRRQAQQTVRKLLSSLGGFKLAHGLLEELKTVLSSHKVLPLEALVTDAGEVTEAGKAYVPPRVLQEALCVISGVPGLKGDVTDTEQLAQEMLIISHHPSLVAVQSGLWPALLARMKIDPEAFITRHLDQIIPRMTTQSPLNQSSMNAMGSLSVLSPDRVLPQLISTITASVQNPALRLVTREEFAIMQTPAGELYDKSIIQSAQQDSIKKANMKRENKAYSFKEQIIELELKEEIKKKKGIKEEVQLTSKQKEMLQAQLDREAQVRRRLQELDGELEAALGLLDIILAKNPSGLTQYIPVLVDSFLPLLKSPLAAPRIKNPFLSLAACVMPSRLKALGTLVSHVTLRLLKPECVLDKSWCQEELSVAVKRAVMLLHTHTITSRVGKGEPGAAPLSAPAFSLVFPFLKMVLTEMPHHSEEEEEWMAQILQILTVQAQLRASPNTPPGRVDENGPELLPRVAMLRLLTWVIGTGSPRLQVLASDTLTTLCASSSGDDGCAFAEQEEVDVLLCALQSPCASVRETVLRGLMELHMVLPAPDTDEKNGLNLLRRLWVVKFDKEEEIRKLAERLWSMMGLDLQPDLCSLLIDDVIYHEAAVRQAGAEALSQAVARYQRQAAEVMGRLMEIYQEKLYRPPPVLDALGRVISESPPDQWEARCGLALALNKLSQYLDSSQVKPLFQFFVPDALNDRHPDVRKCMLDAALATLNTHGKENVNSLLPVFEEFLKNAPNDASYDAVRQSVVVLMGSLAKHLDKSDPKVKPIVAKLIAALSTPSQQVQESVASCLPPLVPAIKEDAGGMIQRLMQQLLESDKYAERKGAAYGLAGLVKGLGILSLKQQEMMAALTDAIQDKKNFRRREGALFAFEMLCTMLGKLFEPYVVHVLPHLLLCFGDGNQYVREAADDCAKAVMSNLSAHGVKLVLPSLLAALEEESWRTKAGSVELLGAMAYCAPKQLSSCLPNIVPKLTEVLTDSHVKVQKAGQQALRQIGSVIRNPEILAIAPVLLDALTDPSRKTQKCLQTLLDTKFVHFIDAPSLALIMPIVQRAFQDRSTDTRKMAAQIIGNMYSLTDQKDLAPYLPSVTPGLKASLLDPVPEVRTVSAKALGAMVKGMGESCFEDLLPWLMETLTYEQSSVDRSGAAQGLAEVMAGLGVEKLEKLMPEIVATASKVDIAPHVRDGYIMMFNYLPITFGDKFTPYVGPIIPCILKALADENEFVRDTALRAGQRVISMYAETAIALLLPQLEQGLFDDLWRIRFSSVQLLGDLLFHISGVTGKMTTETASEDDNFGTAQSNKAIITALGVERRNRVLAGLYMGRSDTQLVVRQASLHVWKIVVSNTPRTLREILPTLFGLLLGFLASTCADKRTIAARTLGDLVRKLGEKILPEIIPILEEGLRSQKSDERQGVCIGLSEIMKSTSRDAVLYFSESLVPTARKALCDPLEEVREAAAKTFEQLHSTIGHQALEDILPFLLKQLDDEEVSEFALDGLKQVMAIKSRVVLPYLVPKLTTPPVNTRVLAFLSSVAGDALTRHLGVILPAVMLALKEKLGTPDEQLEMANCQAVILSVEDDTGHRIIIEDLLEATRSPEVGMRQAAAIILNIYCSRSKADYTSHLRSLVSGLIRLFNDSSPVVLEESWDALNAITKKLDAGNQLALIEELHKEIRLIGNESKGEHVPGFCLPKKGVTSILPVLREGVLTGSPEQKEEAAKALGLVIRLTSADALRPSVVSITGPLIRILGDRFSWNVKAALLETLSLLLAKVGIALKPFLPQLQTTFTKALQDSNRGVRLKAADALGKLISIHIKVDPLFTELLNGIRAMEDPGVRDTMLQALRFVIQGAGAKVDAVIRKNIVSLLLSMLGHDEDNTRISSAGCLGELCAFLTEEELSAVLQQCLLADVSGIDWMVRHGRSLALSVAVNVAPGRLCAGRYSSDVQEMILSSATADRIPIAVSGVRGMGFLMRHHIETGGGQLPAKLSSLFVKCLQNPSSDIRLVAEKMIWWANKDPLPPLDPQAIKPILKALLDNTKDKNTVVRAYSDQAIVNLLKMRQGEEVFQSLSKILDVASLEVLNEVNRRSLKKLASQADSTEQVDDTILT
Summary of the method: as §1

ITPR2_C579 = target: T5, ITPR2_C579 (Homo sapiens, UniProt Q14571); settings: 22Rv1 cells, 20 μM probe, 1 h, relative to DMSO
T5 construct: endogenous in cells; host or cells: 22Rv1
Summary of the method: as §1

CYP27B1_C163 = target: T6, CYP27B1_C163 (Homo sapiens, UniProt O15528); settings: 22Rv1 cells, 20 μM probe, 1 h, relative to DMSO
T6 construct: endogenous in cells; host or cells: 22Rv1
T6 sequence (O15528 1-508): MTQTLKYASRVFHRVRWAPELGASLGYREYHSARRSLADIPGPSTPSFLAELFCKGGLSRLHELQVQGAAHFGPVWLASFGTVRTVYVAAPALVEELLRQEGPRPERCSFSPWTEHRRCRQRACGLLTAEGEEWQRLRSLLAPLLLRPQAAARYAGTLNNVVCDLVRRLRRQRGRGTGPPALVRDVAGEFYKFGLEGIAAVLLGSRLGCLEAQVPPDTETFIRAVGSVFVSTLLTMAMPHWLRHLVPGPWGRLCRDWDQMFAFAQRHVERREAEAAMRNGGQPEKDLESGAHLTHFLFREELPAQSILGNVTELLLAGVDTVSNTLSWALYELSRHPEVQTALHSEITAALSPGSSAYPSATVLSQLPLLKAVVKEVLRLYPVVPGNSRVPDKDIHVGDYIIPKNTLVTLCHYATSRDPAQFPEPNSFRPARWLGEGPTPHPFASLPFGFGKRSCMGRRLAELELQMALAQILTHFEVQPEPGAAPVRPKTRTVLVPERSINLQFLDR
Summary of the method: as §1

SMILES | % engagement PSME1_22 (PSME1_C22) [%] | % engagement LIMK1_349 (LIMK1_C349) [%] | % engagement STK11_C418 (STK11_C418) [%] | % engagement GCN1_C1095 (GCN1_C1095) [%] | % engagement ITPR2_C579 (ITPR2_C579) [%] | % engagement CYP27B1_C163 (CYP27B1_C163) [%] | % engagement PSME1_C22 (PSME1_C22) [%] | % engagement LIMK1_C349 (LIMK1_C349) [%]
CC#CC(=O)N1C[C@H](c2ccc(Br)cc2)[C@@H]1C(=O)Nc1cccc2cccnc12 [MY-45B, (2R,3S)-3-(4-bromophenyl)-1-(but-2-ynoyl)-N-(quinolin-8-yl)azetidine-2-carboxamide] | 69.50 | −15.75 | – | – | – | – | – | –
C=CC(=O)N1C[C@H](c2ccc(Br)cc2)[C@H]1C(=O)Nc1cccc2cccnc12 [MY-3A, (2S,3S)-1-acryloyl-3-(4-bromophenyl)-N-(quinolin-8-yl)azetidine-2-carboxamide] | – | – | 38 | 5 | 4.5 | 73.5 | −14.5 | 21.5
C=CC(=O)N1C[C@@H](c2ccc(Br)cc2)[C@H]1C(=O)Nc1cccc2cccnc12 [MY-1A, (2S,3R)-1-acryloyl-3-(4-bromophenyl)-N-(quinolin-8-yl)azetidine-2-carboxamide] | – | – | 83.5 | 18.5 | 7.75 | 73 | −2.25 | 45.25
C=CC(=O)N1C[C@H](c2ccc(Br)cc2)[C@@H]1C(=O)Nc1cccc2cccnc12 [MY-1B, (2R,3S)-1-acryloyl-3-(4-bromophenyl)-N-(quinolin-8-yl)azetidine-2-carboxamide] | 44.38 | 90.88 | 66.5 | 84 | 11.25 | 89 | 67.75 | 93
C=CC(=O)N1C[C@H](c2ccc(Br)cc2)[C@H]1C(=O)Nc1cccc2cccnc12 [MY-3B, (2S,3S)-1-acryloyl-3-(4-bromophenyl)-N-(quinolin-8-yl)azetidine-2-carboxamide] | – | – | 61.5 | −7.5 | 70.75 | 100 | −31.75 | 43.25
